In US20260250312A1, “ANTIBACTERIAL COMPOUNDS ELIMINATING DORMANT BACTERIAL CELLS” (UNIVERSITÉ D'AIX-MARSEILLE, priority 2022, published 2026):
Where “and” joins values, the source holds several entries; their conditions need not be identical. Identical values can stand only once.

Key:
CHO-K1 cells = test: WST1 cytotoxicity test; format: cell-based, Chinese hamster; conditions: Cricetulus griseus, CHO-K1, 24 h, WST1, 24 hours at 37° C.; read-out: IC50 CHO
From the text: Cytotoxicity: The test WST1 was used to measure the cytotoxic activity of the compounds of the invention. The test WST1 is a colorimetric test allowing to measure the viability and the degree of cell proliferation. It is based on cleavage of the colorless tetrazolium salts WST-1 (4—[3-(4-iodophenyl)-2-(4-nitrophenyl)-2H-5-tetrazolio]-1,3-benzene disulfonate) with mitochondrial dehydrogenases to the yellow-colored formazan derivative, which may be quantified by spectrophotometry at 420-480 nm. The WST1 test was performed on Chinese hamster ovary (CHO) cells. The CHO-K1 cells (ATCC, USA) were kept in culture in McCoy's 5A medium supplemented with 10% fetal calf serum, 2 mM of L-glutamine and a mixture of penicillin-streptomycin (100 U/ml: 10 μg/mL). The culture was incubated at 37° C. under an atmosphere enriched in CO2 (5%), and subcultured every two days. The cells were transferred into 96-well plates (25,000 cells/mL) in whole McCoy's 5A medium, and maintained for 24 hours at 37° C. under a humid atmosphere enriched in CO2 (5%). Increasing concentrations of tested compounds were added to the wells, each compound was tested in replicates and 8 growth controls containing the cells in the medium alone were included in each series of tests. After 24 hours at 37° C. (5% CO2), the culture medium was removed, the cells were rinsed in phosphate buffer (PBS) and 50 μL of PBS containing 10% of reagent WST1 were added to each well. After 20 minutes of incubation at 37° C., the results were read by spectrophotometry at 450 nm. The results are expressed in dose-response relationships, modeled by nonlinear regression analysis using the TableCurve software.
Cytotoxicity: The same WST1 test as described in Example 2 above was used.

[1] = tested on: Escherichia coli (ATCC28922); test: Microdilution MIC assay (CLSI-based), E. coli; format: cell-based; conditions: Escherichia coli, ATCC28922, 20 h, 20 hours incubation at 35-37° C., MHB; read-out: Minimum inhibitory concentration E. coli ATCC28922
In short: (§1)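 Broth microdilution per modified CLSI guidelines in Mueller Hinton broth, 200 μL, inoculum ca. 5×10^5 CFU/mL; compounds tested as salts, twofold dilutions from 0.2 mg/mL, in triplicate. MIC determined from OD at 620 nm after incubation.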

[2] = tested on: Staphylococcus aureus (ATCC25923); test: Microdilution MIC assay (CLSI-based), S. aureus; format: cell-based; conditions: Staphylococcus aureus, ATCC25923, 20 h, 20 hours incubation at 35-37° C., MHB; read-out: Minimum inhibitory concentration S. aureus ATCC25923
In short: as §1

[3] = tested on: Enterococcus faecalis (ATCC29212); test: Microdilution MIC assay (CLSI-based), E. faecalis; format: cell-based; conditions: Enterococcus faecalis, ATCC29212, 20 h, 20 hours incubation at 35-37° C., MHB; read-out: Minimum inhibitory concentration E. faecalis ATCC29212
In short: as §1

[4] = tested on: Pseudomonas aeruginosa (ATCC27853); test: Microdilution MIC assay (CLSI-based), P. aeruginosa; format: cell-based; conditions: Pseudomonas aeruginosa, ATCC27853, 20 h, 20 hours incubation at 35-37° C., MHB; read-out: Minimum inhibitory concentration P. aeruginosa ATCC27853
In short: as §1

SMILES	IC50 (CHO-K1 cells)	MIC [1]	MIC [2]	MIC [3]	MIC [4]
COC(=O)[C@@H](NC(=O)CC[C@@H](C)[C@H]1CC[C@H]2[C@@H]3[C@H](O)C[C@@H]4CC(NCCCN5CCN(CCCN)CC5)CC[C@]4(C)[C@H]3CC[C@]12C)C(C)C (mixture of isomers) [Compound S002, methyl ((4R)-4-((3S,5S,7R,10S,13R,17R)-3-((3-(4-(3-aminopropyl)piperazin-1-yl)propyl)amino)-7-hydroxy-10,13-dimethylhexadecahydro-1H-cyclopenta[a]phenanthren-17-yl)pentanoyl)valinate]	93.3 µM and 64.2 µg/mL	100 µM and 64 µg/mL	25 µM and 16 µg/mL	50 µM and 32 µg/mL	100 µM and 64 µg/mL
COC(=O)[C@H](Cc1ccccc1)NC(=O)CC[C@@H](C)[C@H]1CCC2C3C(CC[C@@]21C)[C@@]1(C)CC[C@H](NCCN)C[C@H]1C[C@H]3O (stereo partly drawn) [Compound S015, methyl ((4R)-4-((3S,5S,7R,10S,13R,17R)-3-((2-aminoethyl)amino)-7-hydroxy-10,13-dimethylhexadecahydro-1H-cyclopenta[a]phenanthren-17-yl)pentanoyl)-L-phenylalaninate]	> 250 µM and > 149 µg/mL	12.5 µM and 8 µg/mL	12.5 µM and 8 µg/mL	12.5 µM and 8 µg/mL	50 µM and 32 µg/mL
COC(=O)[C@H](NC(=O)CC[C@@H](C)[C@H]1CCC2C3C(CC[C@@]21C)[C@@]1(C)CC[C@H](NCCCNCCCNCCCN)C[C@H]1C[C@H]3O)C(C)C (stereo partly drawn) [Compound S011, methyl ((4R)-4-((3S,5S,7R,10S,13R,17R)-3-((3-((3-((3-aminopropyl)amino)propyl)amino)propyl)amino)-7-hydroxy-10,13-dimethylhexadecahydro-1H-cyclopenta[a]phenanthren-17-yl)pentanoyl)-D-valinate]	1.17 µM and 0.79 µg/mL	12.5 µM and 8 µg/mL	12.5 µM and 8 µg/mL	25 µM and 16 µg/mL	25 µM and 16 µg/mL
COC(=O)CNC(=O)CC[C@@H](C)[C@H]1CCC2C3C(C[C@H](O)[C@@]21C)[C@@]1(C)CC[C@H](NCCCNCCCCNCCCN)C[C@H]1C[C@H]3O (stereo partly drawn) [Compound S051, methyl ((4R)-4-((3S,5S,7R,10S,12S,13R,17R)-3-((3-((4-((3-aminopropyl)amino)butyl)amino)propyl)amino)-7,12-dihydroxy-10,13-dimethylhexadecahydro-1H-cyclopenta[a]phenanthren-17-yl)pentanoyl)glycinate]	33.3 µM and 22.1 µg/mL	25 µM and 16 µg/mL	6.25 µM and 4 µg/mL	50 µM and 32 µg/mL	25 µM and 16 µg/mL
COC(=O)CNC(=O)CC[C@@H](C)[C@H]1CCC2C3C(CC[C@@]21C)[C@@]1(C)CC[C@H](NCCCN2CCN(CCCN)CC2)C[C@H]1C[C@H]3O (stereo partly drawn) [Compound S006, methyl ((4R)-4-((3S,5S,7R,10S,13R,17R)-3-((3-(4-(3-aminopropyl)piperazin-1-yl)propyl)amino)-7-hydroxy-10,13-dimethylhexadecahydro-1H-cyclopenta[a]phenanthren-17-yl)pentanoyl)glycinate]	73.6 µM and 47.7 µg/mL	> 200 µM and > 128 µg/mL	25 µM and 16 µg/mL	> 200 µM and > 128 µg/mL	> 200 µM and > 128 µg/mL
COC(=O)[C@H](NC(=O)CC[C@@H](C)[C@H]1CCC2C3C(CC[C@@]21C)[C@@]1(C)CC[C@H](NCCNCCNCCN)C[C@H]1C[C@H]3O)C(C)C (stereo partly drawn) [Compound S012, methyl ((4R)-4-((3S,5S,7R,10S,13R,17R)-3-((2-((2-((2-aminoethyl)amino)ethyl)amino)ethyl)amino)-7-hydroxy-10,13-dimethylhexadecahydro-1H-cyclopenta[a]phenanthren-17-yl)pentanoyl)-D-valinate]	101 µM and 64.2 µg/mL	100 µM and 64 µg/mL	50 µM and 32 µg/mL	25 µM and 16 µg/mL	100 µM and 64 µg/mL
COC(=O)[C@H](NC(=O)CC[C@@H](C)[C@H]1CCC2C3C(CC[C@@]21C)[C@@]1(C)CC[C@H](NCCNCCN)C[C@H]1C[C@H]3O)C(C)C (stereo partly drawn) [Compound S020, methyl ((4R)-4-((3S,5S,7R,10S,13R,17R)-3-((2-((2-aminoethyl)amino)ethyl)amino)-7-hydroxy-10,13-dimethylhexadecahydro-1H-cyclopenta[a]phenanthren-17-yl)pentanoyl)-D-valinate]	17.2 µM and 10.2 µg/mL	100 µM and 64 µg/mL	100 µM and 64 µg/mL	> 200 µM and > 128 µg/mL	> 200 µM and > 128 µg/mL
COC(=O)[C@@H](Cc1ccccc1)NC(=O)CC[C@@H](C)[C@H]1CCC2C3C(CC[C@@]21C)[C@@]1(C)CC[C@H](NCCCNCCCN)C[C@H]1C[C@H]3O (stereo partly drawn) [Compound S028, methyl ((4R)-4-((3S,5S,7R,10S,13R,17R)-3-((3-((3-aminopropyl)amino)propyl)amino)-7-hydroxy-10,13-dimethylhexadecahydro-1H-cyclopenta[a]phenanthren-17-yl)pentanoyl)-D-phenylalaninate]	54.6 µM and 36.4 µg/mL	6.25 µM and 4 µg/mL	12.5 µM and 8 µg/mL	12.5 µM and 8 µg/mL	50 µM and 32 µg/mL
COC(=O)[C@H](Cc1ccc(O)cc1)NC(=O)CC[C@@H](C)[C@H]1CCC2C3C(CC[C@@]21C)[C@@]1(C)CC[C@H](NCCCNCCCN)C[C@H]1C[C@H]3O (stereo partly drawn) [Compound S040, methyl ((4R)-4-((3S,5S,7R,10S,13R,17R)-3-((3-((3-aminopropyl)amino)propyl)amino)-7-hydroxy-10,13-dimethylhexadecahydro-1H-cyclopenta[a]phenanthren-17-yl)pentanoyl)-L-tyrosinate]	155 µM and 106 µg/mL	50 µM and 32 µg/mL	25 µM and 16 µg/mL	25 µM and 16 µg/mL	50 µM and 32 µg/mL
COC(=O)[C@@H](NC(=O)CC[C@@H](C)[C@H]1CCC2C3CC[C@@H]4C[C@@H](NCCCNCCCCNCCCN)CC[C@]4(C)C3CC[C@@]21C)C(C)C (stereo partly drawn) [Compound S057, methyl ((4R)-4-((3S,5R,10S,13R,17R)-3-((3-((4-((3-aminopropyl)amino)butyl)amino)propyl)amino)-10,13-dimethylhexadecahydro-1H-cyclopenta[a]phenanthren-17-yl)pentanoyl)-L-valinate]	30.2 µM and 20.4 µg/mL	3.12 µM and 2 µg/mL	3.12 µM and 2 µg/mL	3.12 µM and 2 µg/mL	6.25 µM and 4 µg/mL
COC(=O)CNC(=O)CC[C@@H](C)[C@H]1CCC2C3C(CC[C@@]21C)[C@@]1(C)CC[C@H](NCCCN(CCCN)CCCN)C[C@H]1C[C@H]3O (stereo partly drawn) [Compound S005, methyl ((4R)-4-((3S,5S,7R,10S,13R,17R)-3-((3-(bis(3-aminopropyl)amino)propyl)amino)-7-hydroxy-10,13-dimethylhexadecahydro-1H-cyclopenta[a]phenanthren-17-yl)pentanoyl)glycinate]	> 100 µM and > 64 µg/mL	> 200 µM and > 126 µg/mL	12.5 µM and 8 µg/mL	200 µM and 128 µg/mL	> 200 µM and > 126 µg/mL
COC(=O)[C@H](NC(=O)CC[C@@H](C)[C@H]1CCC2C3C(CC[C@@]21C)[C@@]1(C)CC[C@H](NCCCCCCN)C[C@H]1C[C@H]3O)C(C)C (stereo partly drawn) [Compound S023, methyl ((4R)-4-((3S,5S,7R,10S,13R,17R)-3-((6-aminohexyl)amino)-7-hydroxy-10,13-dimethylhexadecahydro-1H-cyclopenta[a]phenanthren-17-yl)pentanoyl)-D-valinate]	48.5 µM and 29.3 µg/mL	100 µM and 64 µg/mL	50 µM and 32 µg/mL	100 µM and 64 µg/mL	> 200 µM and > 120 µg/mL
